Experimental data as given in patent US12077503B2, “Substituted cyclic amides and their use as herbicides” (FMC CORPORATION, priority 2015, dated 2024).

How the values were obtained:
Assay type in all cases: in vivo
[1] = system: giant foxtail (Setaria faberii); assay: Test A postemergence
Text: (§1) Seeds of plant species selected from barnyardgrass (Echinochloa crus-galli), Kochia (Kochia scoparia), ragweed (common ragweed, Ambrosia elatior), ryegrass, Italian (Italian ryegrass, Lolium multiflorum), crabgrass, large (Digitaria sanguinalis), giant foxtail (Setaria faberii), green foxtail (Setaria viridis), morningglory (Ipomoea spp.), pigweed (Amaranthus retroflexus), velvetleaf (Abutilon theophrasti), wheat (Triticum aestivum), and corn (Zea mays) were planted into a blend of loam soil and sand and treated preemergence with a directed soil spray using test chemicals formulated in anon-phytotoxic solvent mixture which included a surfactant.
(§2) At the same time, plants selected from these crop and weed species and also blackgrass (Alopecurus myosuroides), and Galium (catchweed bedstraw, Galium aparine) were planted in pots containing the same blend of loam soil and sand and treated with postemergence applications of test chemicals formulated in the same manner. Plants ranged in height from 2 to 10 cm and were in the one- to two-leaf stage for the postemergence treatment. Treated plants and untreated controls were maintained in a greenhouse for approximately 10 d, after which time all treated plants were compared to untreated controls and visually evaluated for injury. Plant response ratings, summarized in Table A, are based on a 0 to 100 scale where 0 is no effect and 100 is complete control. A dash (-) response means no test result.

Kochia (Kochia scoparia) [2] = assay: Test A postemergence
Text: as §1, §2

[3] = system: wheat (Triticum aestivum); assay: Test A postemergence
Text: as §1, §2

[4] = system: barnyardgrass (Echinochloa crus-galli); assay: Test A postemergence
Text: as §1, §2

[5] = system: pigweed (Amaranthus retroflexus); assay: Test A postemergence
Text: as §1, §2

[6] = system: blackgrass (Alopecurus myosuroides); assay: Test A postemergence
Text: as §1, §2

[7] = system: ragweed (common ragweed, Ambrosia elatior); assay: Test A postemergence
Text: as §1, §2

[8] = system: Galium (catchweed bedstraw, Galium aparine); assay: Test A postemergence
Text: as §1, §2

[9] = system: ryegrass, Italian (Italian ryegrass, Lolium multiflorum); assay: Test A postemergence
Text: as §1, §2

corn (Zea mays) = assay: Test A postemergence
Text: as §1, §2

[10] = system: sedge, umbrella (small-flower umbrella sedge, Cyperus difformis); assay: Test B flooded paddy test; settings: Flood, 250 g ai/ha; 0 to 100 scale where 0 is no effect and 100 is complete control; 13 to 15 d
Procedure, shortened: (§3)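 Compound goes directly into floodwater once pots are flooded 3 cm above soil, targeting plants at two leaves; the water depth is then held for the test duration. Plants sit 13–15 d in a greenhouse and are rated visually, 100 denoting complete control.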

[11] = system: ducksalad (Heteranthera limosa); assay: Test B flooded paddy test; settings: Flood, 250 g ai/ha; 0 to 100 scale where 0 is no effect and 100 is complete control; 13 to 15 d
Procedure, shortened: as §3

[12] = system: barnyardgrass (Echinochloa crus-galli); assay: Test B flooded paddy test; settings: Flood, 250 g ai/ha; 0 to 100 scale where 0 is no effect and 100 is complete control; 13 to 15 d
Procedure, shortened: as §3

rice (Oryra sativa) = assay: Test B flooded paddy test; settings: Flood, 250 g ai/ha; 0 to 100 scale where 0 is no effect and 100 is complete control; 13 to 15 d
Procedure, shortened: as §3

[13] = system: giant foxtail (Setaria faberii); assay: Test A preemergence
Text: as §1, §2

Kochia (Kochia scoparia) [14] = assay: Test A preemergence
Text: as §1, §2

[15] = system: barnyardgrass (Echinochloa crus-galli); assay: Test A preemergence
Text: as §1, §2

[16] = system: pigweed (Amaranthus retroflexus); assay: Test A preemergence
Text: as §1, §2

[17] = system: ragweed (common ragweed, Ambrosia elatior); assay: Test A preemergence
Text: as §1, §2

[18] = system: ryegrass, Italian (Italian ryegrass, Lolium multiflorum); assay: Test A preemergence
Text: as §1, §2

[19] = 125 g ai/ha, postemergence, visual rating after approx. 10 d, 0 to 100 scale (0 no effect, 100 complete control)
[20] = Postemergence, 500 g ai/ha, 0 to 100 scale where 0 is no effect and 100 is complete control
[21] = 125 g ai/ha, postemergence, visual injury rating on 0 to 100 scale (0 no effect, 100 complete control), approx. 10 d
[22] = 125 g ai/ha, Preemergence, visual injury after approximately 10 d, 0 to 100 scale where 0 is no effect and 100 is complete control
[23] = Preemergence, 500 g ai/ha, visual injury approx. 10 d
[24] = 500 g ai/ha, postemergence, visual injury, 0 to 100 scale (0 no effect, 100 complete control), approx. 10 d
[25] = 500 g ai/ha, preemergence, 0 to 100 scale, 0 = no effect, 100 = complete control

SMILES	Plant response rating, Foxtail, Giant [1, 19]	Plant response rating, Kochia (Kochia (Kochia scoparia) [2]; [19])	Plant response rating, Wheat [3, 19]	Plant response rating, Pigweed [5, 19]	Plant response rating, Ragweed [7, 19]	Plant response rating, Galium [8, 19]	Plant response rating, Ryegrass, Italian [9, 19]	Plant response rating, Corn (corn (Zea mays); [19])	Plant response rating, Sedge, Umbrella [10]	Plant response rating, Ducksalad [11]	Plant response rating, Barnyardgrass [12]	Plant response rating, Rice (rice (Oryra sativa))	Plant response rating, Foxtail, Giant [13, 22]	Plant response rating, Kochia (Kochia (Kochia scoparia) [14]; [22])	Plant response rating, Barnyardgrass [15, 22]	Plant response rating, Pigweed [16, 22]	Plant response rating, Ragweed [17, 22]	Plant response rating, Ryegrass, Italian [18, 22]	other results
O=C1NCC(c2cc(F)ccc2F)C1C(=O)Nc1ccccc1F (racemic) [Compound 544]	0	0	0	0	0	0	0	0	0	45	25	0	70	0	30	0	0	0	Plant response rating, Foxtail, Giant [1, 20]: 60; Plant response rating, Kochia (Kochia (Kochia scoparia) [2]; [20]): 0; Plant response rating, Wheat [3, 20]: 0; Barnyardgrass plant response rating [4, 21]: 20; Plant response rating, Barnyardgrass [4, 20]: 70; Plant response rating, Pigweed [5, 20]: 0; Blackgrass plant response rating [6, 21]: 0; Plant response rating, Blackgrass [6, 20]: 0; Plant response rating, Ragweed [7, 20]: 0; Plant response rating, Galium [8, 20]: 0; Plant response rating, Ryegrass, Italian [9, 20]: 0; Plant response rating, Corn (corn (Zea mays); [20]): 20; Foxtail, Giant plant response rating (0 to 100 scale, 0 is no effect, 100 is complete control) [13, 23]: 90; Kochia plant response rating (0 to 100 scale, 0 is no effect, 100 is complete control) (Kochia (Kochia scoparia) [14]; [23]): 0; Barnyardgrass plant response rating (0 to 100 scale, 0 is no effect, 100 is complete control) [15, 23]: 80; Pigweed plant response rating (0 to 100 scale, 0 is no effect, 100 is complete control) [16, 23]: 0; Ragweed plant response rating (0 to 100 scale, 0 is no effect, 100 is complete control) [17, 23]: 0; Ryegrass, Italian plant response rating (0 to 100 scale, 0 is no effect, 100 is complete control) [18, 23]: 0
O=C1NCC(c2csc(Br)c2)C1C(=O)Nc1cccc(F)c1F (racemic) [Compound 649]	30	30	0	0	20	50	30	0	0	100	60	0	50	60	80	50	20	30	Plant response rating, Foxtail, Giant [1, 24]: 60; Plant response rating, Kochia (Kochia (Kochia scoparia) [2]; [24]): 60; Plant response rating, Wheat [3, 24]: 0; Plant response rating, Barnyardgrass [4, 19]: 60; Plant response rating, Barnyardgrass [4, 24]: 70; Plant response rating, Pigweed [5, 24]: 30; Plant response rating, Blackgrass [6, 19]: 20; Plant response rating, Blackgrass [6, 24]: 60; Plant response rating, Ragweed [7, 24]: 60; Plant response rating, Galium [8, 24]: 70; Plant response rating, Ryegrass, Italian [9, 24]: 40; Plant response rating, Corn (corn (Zea mays); [24]): 0; Plant response rating, Foxtail, Giant [13, 25]: 70; Plant response rating, Kochia (Kochia (Kochia scoparia) [14]; [25]): 70; Plant response rating, Barnyardgrass [15, 25]: 90; Plant response rating, Pigweed [16, 25]: 60; Plant response rating, Ragweed [17, 25]: 70; Plant response rating, Ryegrass, Italian [18, 25]: 70
